Literature values, collected in patent publication US20250101519A1, “USE OF HYPOXIA-INDUCIBLE FACTOR 1 ALPHA AS MARKER IN DEPRESSION RECURRENCE DIAGNOSIS” (NINGBO UNIVERSITY, priority 2022, published 2025).

Columns and labels:
[1] = in humans
[2] = in mice; other references report various values

- metabolic clearance half-life [1]: 96 to 140 h
- clearance half-life [2]: 9 h
Structure (SMILES): CNCCC(Oc1ccc(C(F)(F)F)cc1)c1ccccc1 (centres unmarked) [fluoxetine]
